Experimental data: US20050053931A1, “Method for the diagnosis and therapy of renal cell carcinoma” (priority 2001, published 2005)
Residues, ends and D or L forms follow the SMILES beside them. *: point of attachment. Cbz = O=C(OCc1ccccc1)*

Experiments:
[1] = tested on: mycNbk expression in DU145 prostate carcinoma cells; test: Conditional expression of mycNbk after Ad-TreNbk-tTA infection (Western blot); type: cell-based, human; settings: 24 h after infection with Ad-TreNbk-tTA at 25 MOI
Description: For regulable expression of the pro-apoptotic gene Nbk in human cells, an adenoviral vector based on the adenovirus serotype 5 backbone was constructed. In this construct, the E3 region was replaced by the expression cassette for the tTA and the E1 region was replaced by an expression cassette for Nbk. To allow for convenient detection of the exogenous Nbk, a myc tag was inserted at the N-terminus of the human Nbk cDNA. Constitutive expression of the tTA was achieved by putting the tTA under the control of a CMV promoter. In the absence of tetracyclin or doxycyclin the tTA fusion protein binds via the TetR portion to the TRE in the PhCMV* promoter and activates via the VP16AD portion the transcription of the mycNbk. In the presence of tetra- or doxycyclin Nbk expression is repressed and switched off.
The recombinant adenovirus Ad-TreNbk-tTA (FIG. 7A) was employed for expression of the myc tagged Nbk (mycNbk) in a doxycyclin dependent manner. […] Apart from DU145, Nbk could be strongly expressed by the use of this adenoviral vector 24 h after transduction in a panel of other carcinomas or non-epithelial tumor cells, i.e. sarcoma, glioma and other mesenchymal cell types.
Apoptosis was determined by the use of a modified cell cycle analysis technique that relies on the measurement of cellular DNA content on the single cell level by flow cytometry. […]

[2] = tested on: glioma cells; settings: upon adenoviral Nbk gene transfer with Ad-TreNbk-tTA; cited from earlier work

Row | Structure (SMILES) | doxycyclin concentration at which Nbk expression is almost completely suppressed [1] [ng/mL] | Nbk expression levels [2] | sensitivity for Nbk-induced apoptosis [2]
1 | C[C@H]1c2cccc(O)c2C(O)=C2C(=O)[C@]3(O)C(O)=C(C(N)=O)C(=O)[C@@H](N(C)C)[C@@H]3[C@@H](O)[C@@H]21 [doxycyclin] | ≥ 10 |  | 
2 | CC(C)C[C@@H](C=O)NC(=O)[C@H](CC(C)C)NC(=O)[C@H](CC(C)C)NC(=O)OCc1ccccc1 [MG132] (Cbz-Leu-Leu-Leu-aldehyde) |  | enhanced Nbk expression levels | increased sensitivity for Nbk-induced apoptosis
